One test concerns the target GABA B receptor (Rattus norvegicus, UniProt O88871+Q9Z0U4). The experiment in a line: Binding affinity against Gamma-aminobutyric acid type B receptor in rat brain synaptosomes after 30 minutes. Format: subcellular.
Test [1] addresses GABA-A receptor; anion channel. The experiment in a line: Binding affinity against Gamma-aminobutyric acid A receptor in rat brain synaptosomes after 30 minutes. Format: subcellular.
Test [2] relates to Cavia porcellus. The experiment in a line: Inhibitory effect on bronchospasm caused by vagal nerve stimulation (EFS) in anesthetized, mechanically ventilated guinea-pigs at 3 mg/kg after 10 minutes. Format: functional. Particulars: Bronchiole; call rule not given here.
For test [3], the species on record is Cavia porcellus. The experiment in a line: Compound was tested for its effect on EFS stimulated neuronal cholinergic contractions of guinea pig tracheal rings after 10 minutes. Format: functional. Particulars: Trachea.
Test [4] has as its system GABA-A receptor; anion channel. The experiment in a line: Binding affinity against Gamma-aminobutyric acid A receptor in rat brain synaptosomes after 30 minutes (inactive). Format: subcellular.

From ChEMBL document CHEMBL1152068, “A study of 3-amino-N-hydroxypropanesulfonamide derivatives as potential GABAB agonists and their fragmentation to 3-aminopropanesulfinic acid” (Bioorg Med Chem Lett, 1996) come the findings set out here.

pIC50: −log10 of the molar value.

GABA B receptor, sequence (Q9Z0U4 whole entry): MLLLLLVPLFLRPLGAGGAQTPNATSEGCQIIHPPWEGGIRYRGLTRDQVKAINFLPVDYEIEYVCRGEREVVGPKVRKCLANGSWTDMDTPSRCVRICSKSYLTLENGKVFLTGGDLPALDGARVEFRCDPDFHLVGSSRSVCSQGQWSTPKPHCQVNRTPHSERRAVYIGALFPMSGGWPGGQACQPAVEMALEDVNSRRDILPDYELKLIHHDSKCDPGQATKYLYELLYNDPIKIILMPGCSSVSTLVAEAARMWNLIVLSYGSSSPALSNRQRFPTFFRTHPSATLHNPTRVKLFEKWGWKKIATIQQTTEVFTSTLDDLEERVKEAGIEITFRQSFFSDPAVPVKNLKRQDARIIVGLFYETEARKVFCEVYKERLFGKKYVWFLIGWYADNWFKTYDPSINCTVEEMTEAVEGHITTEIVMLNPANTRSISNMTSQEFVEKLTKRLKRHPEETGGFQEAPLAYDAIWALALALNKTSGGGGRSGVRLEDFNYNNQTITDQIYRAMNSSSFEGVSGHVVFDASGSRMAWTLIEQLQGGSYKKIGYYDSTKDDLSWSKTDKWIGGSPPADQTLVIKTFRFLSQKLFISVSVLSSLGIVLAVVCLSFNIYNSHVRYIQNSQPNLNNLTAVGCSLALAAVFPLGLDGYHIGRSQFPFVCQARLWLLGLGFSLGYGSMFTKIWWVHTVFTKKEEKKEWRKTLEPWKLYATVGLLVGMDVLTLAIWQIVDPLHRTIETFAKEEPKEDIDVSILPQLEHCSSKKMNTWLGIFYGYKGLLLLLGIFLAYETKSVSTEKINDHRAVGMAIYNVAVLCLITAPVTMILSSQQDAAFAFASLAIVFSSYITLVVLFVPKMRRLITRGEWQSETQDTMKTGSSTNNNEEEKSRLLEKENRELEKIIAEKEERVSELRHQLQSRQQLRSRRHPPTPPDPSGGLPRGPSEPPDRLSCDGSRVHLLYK
GABA B receptor, sequence (O88871 whole entry): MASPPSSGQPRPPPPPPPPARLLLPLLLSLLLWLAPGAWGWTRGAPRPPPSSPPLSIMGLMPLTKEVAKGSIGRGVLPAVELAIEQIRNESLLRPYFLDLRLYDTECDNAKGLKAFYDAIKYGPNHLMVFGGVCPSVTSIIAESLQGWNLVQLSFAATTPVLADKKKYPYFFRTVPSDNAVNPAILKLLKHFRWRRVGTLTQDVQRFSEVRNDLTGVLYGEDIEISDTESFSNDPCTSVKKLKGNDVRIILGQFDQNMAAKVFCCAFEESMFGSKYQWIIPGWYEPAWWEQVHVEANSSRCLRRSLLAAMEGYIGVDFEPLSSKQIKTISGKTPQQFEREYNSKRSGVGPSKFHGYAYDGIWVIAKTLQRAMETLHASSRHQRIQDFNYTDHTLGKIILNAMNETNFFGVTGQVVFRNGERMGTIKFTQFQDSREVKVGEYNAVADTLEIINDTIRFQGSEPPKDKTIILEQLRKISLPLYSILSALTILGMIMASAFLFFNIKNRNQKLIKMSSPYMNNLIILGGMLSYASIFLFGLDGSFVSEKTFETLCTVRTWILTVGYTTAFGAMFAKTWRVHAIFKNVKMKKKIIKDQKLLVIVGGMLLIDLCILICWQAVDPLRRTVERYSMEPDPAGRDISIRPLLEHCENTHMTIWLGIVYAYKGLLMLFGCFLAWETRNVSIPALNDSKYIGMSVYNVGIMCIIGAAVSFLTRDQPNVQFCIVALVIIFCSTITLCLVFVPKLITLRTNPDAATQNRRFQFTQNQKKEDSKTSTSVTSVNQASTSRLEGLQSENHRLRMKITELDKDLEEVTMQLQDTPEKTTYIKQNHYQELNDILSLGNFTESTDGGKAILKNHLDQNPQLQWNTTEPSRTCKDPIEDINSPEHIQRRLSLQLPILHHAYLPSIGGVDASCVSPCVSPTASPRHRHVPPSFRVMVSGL

Regarding `NCCCS(=O)O` [HOMOHYPOTAURINE], the pIC50 on GABA B receptor was 7.22; in test [1], 6.33; in the test listed under Cavia porcellus [3], 5.77. In the test with Cavia porcellus [2], this molecule displayed an inhibition in vivo at 3 mg/kg of 25%.
On the same counts, the results for `NCCCS(=O)(=O)N(O)Cc1ccccc1` are 7.40, 6.64, 5.38 and 17%.
Take `NCCCS(=O)(=O)N(O)CC(=O)O`: the pIC50 was 7.10 on GABA B receptor and 6.21 in test [1].
As to `NCCCS(=O)(=O)O` [TRAMIPROSATE], the pIC50 at GABA B receptor is 4.52; in test [1], 6.52.
As to `NCCCS(=O)(=O)NO`, the figures for the negative-log IC50 (pIC50) (on GABA B receptor; in test [1]; in the test listed under Cavia porcellus [3]) were 6.55, 5.70 and 4.80, respectively. In the test on Cavia porcellus [2], the inhibition in vivo at 3 mg/kg stood at 0%.
On the same counts, the results for `CN(O)S(=O)(=O)CCCN` are 7.40, 6.55, 5.59 and 17%.
`NCC(CC(=O)O)c1ccc(Cl)cc1` (racemic) [BACLOFEN]: the IC50 entry in test [4] is given as “Not Active”. Also, the inhibition in vivo at 3 mg/kg in the test with Cavia porcellus [2] was 75%. In the test filed under Cavia porcellus [3], this molecule gave a pIC50 of 5.19.
